Results published in article PMC12040169 (PLOS Biology, 2025).

Assay: in vitro
Conditions: human, hela cells, % viability

Row | SMILES | viability at 28.5 h, 10 µM [%] | viability at 28.5 h, 10 µM (bulk resorufin, single well) [%]
1 | O=C(Nc1ccccc1O)c1ccc2c(c1)C(=O)N(c1ccc(Sc3ccc([N+](=O)[O-])cc3)cc1)C2=O [CBK262092] | 86.8 | 
2 | CCCCC1(COC(C)=O)OC(=O)Nc2ccc(Br)cc21 (stereo not shown) [CBK010195] | 91.1 | 
3 | Cc1nnc(CS(=O)(=O)Cc2csc(C(C)C)n2)n1C1CC1 [CBK304106] | 101 | 
4 | COc1ccc(C(=O)Nc2nc(-c3ccc(OC)cc3)cs2)cc1 [CBK287325] | 99.2 | 
5 | Cc1ccccc1-n1nc(C)c(CN(C)CC2CCN(C)C2)c1C (stereo not shown) [CBK283035] | 82.6 | 
6 | COCCNC(=O)c1ccc(-c2cc(C)cs2)nc1NCC1CC1 [CBK106259] | 106 | 
7 | CC(C)CN1CCC(NC(=O)c2csc(-c3cnn(C)c3)n2)CC1 [CBK305790] | 97.2 | 
8 | Cc1ccc(OC(C)C(=O)Nc2cc(C(C)(C)C)on2)cc1C (stereo not shown) [CBK288251] | 107 | 
9 | CC(=O)c1c(C(=O)O)[nH]c(C(=O)O)c1C [CBK263934] | 87.4 | 
10 | CN(C)CCN(Cc1cccnc1)C(=O)Cc1ccc2c(c1)CCC2 [CBK282770] | 109 | 
11 | CC(NC(=O)c1ncoc1-c1ccc2ccccc2c1)c1cccnc1 (stereo not shown) [CBK282441] | 94.2 | 
12 | CCCC(=O)Nc1ccccc1NC(=O)c1cccc([N+](=O)[O-])c1C [CBK267398] | 92.1 | 
13 | O=C(C1CCC1)N1C2CCC1Cn1c(nc3ccccc3c1=O)C2 (stereo not shown) [CBK284453] | 91.5 | 
14 | CCc1n[nH]c(C2CN(Cc3nc4c(F)cccc4[nH]3)CCO2)n1 (stereo not shown) [CBK304117] | 90.9 | 
15 | Nc1ncnc(NCCCn2ccnc2)c1[N+](=O)[O-] [CBK267312] | 93.5 | 
16 | CC(C)(C)NS(=O)(=O)c1cccc2nonc12 [CBK265569] | 115 | 
17 | CCc1c(SCC(=O)O)nc2ccccc2c1C [CBK286928] | 95.8 | 
18 | Cc1ccc(C(=O)C2=C(O)C(=O)N(CCCN3CCOCC3)C2c2ccccn2)o1 (stereo not shown) [CBK269187] | 89.7 | 
19 | O=C(OCc1ccc(Sc2ccc([N+](=O)[O-])cc2Cl)cc1)c1cnccn1 [CBK268037] | 93.4 | 
20 | Cc1ccc(C2=NO[C@@](CC(=O)O)(C(=O)Nc3ccc4c(c3)OCCO4)C2)cc1 [CBK286653] | 85.1 | 
21 | O=C(CN1CCN(c2ccc(C(F)(F)F)cn2)CC1)c1ccc2c(c1)OCCO2 [CBK074700] | 98.3 | 
22 | Cn1c(=O)n(C)c2cc(CNc3nn[nH]n3)ccc21 [CBK270243] | 92.4 | 

Row | SMILES | viability at 28.5 h, 10 µM [%] | viability at 28.5 h, 10 µM (bulk resorufin, single well) [%]
23 | O=C1CCC(=O)N1CCn1c(=O)n(C(=O)CCC2CCCC2)c2ccccc21 [CBK106495] | 96.8 | 
24 | CCn1c(CN2CCC(c3noc(C)n3)CC2)nc2c(F)cccc21 [CBK304960] | 91.1 | 
25 | Cc1ccc(Cl)c(OC(=O)NCCOC(=O)NO)c1 [CBK288417] |  | 94.3
26 | COCOc1ccc(-c2nc(-c3cnc(OC)nc3OC)cnc2N)cc1 [CBK063991] | 91.9 | 
27 | O=C(CN1C(=O)c2ccccc2C1=O)OCC(=O)N1c2ccccc2Sc2ccccc21 [CBK264701] | 91.8 | 
28 | Cc1nc[nH]c1CN(CCCn1ccnc1)Cc1ccccc1Cl [CBK282473] | 103 | 
29 | CCC(Oc1ccc(C)cc1)C(=O)Nc1ccc(S(N)(=O)=O)cc1 (stereo not shown) [CBK270036] | 90.5 | 
30 | O=c1cc(N2CCOCC2)cnn1CCCCOc1ccccc1 [CBK307327] | 97.9 | 
31 | O=C(Cc1ccc(Cl)c(Cl)c1)NC(c1ccccc1)c1ccccn1 (stereo not shown) [CBK144110] | 92.8 | 
32 | CS(=O)(=O)N1CC2(CCN(Cc3nc4ccccc4[nH]3)CC2)c2ccccc21 [CBK126672] | 89.2 | 
33 | Cc1nc(CCC(=O)N2Cc3cnn(Cc4ccc(F)cc4)c3C2)n[nH]1 [CBK306993] | 109 | 
34 | Cc1cc(C)n(CCCN(C)Cc2ccc(N3CCCC3=O)cc2)n1 [CBK281827] | 88.3 | 
35 | CC(Sc1nnc(-c2ccc(Cl)cc2)n1CC(=O)O)C(=O)Nc1ccnn1C(C)C (stereo not shown) [CBK296970] | 96.9 | 
36 | Cc1ccnn1C(C)C(=O)NC(Cc1ccsc1)c1nccs1 (stereo not shown) [CBK285141] | 92.1 | 
37 | O=C(NC1CCN(Cc2ccccc2)CC1)c1cnc(-c2ccc(Cl)cc2)c(-c2cccnc2)c1 [CBK037602] | 92.2 | 
38 | CN(CC(=O)N1CCOCC1)S(=O)(=O)c1ccc2ccccc2c1 [CBK266946] | 98.5 | 
39 | C(=N\N=C\c1ccccn1)/c1ccccn1 [CBK015627] | 89 | 
40 | O=C(O)CC(Cc1ccc(Cl)cc1)C(=O)NCc1ccccc1 (stereo not shown) [CBK286984] | 89.4 | 
41 | c1ccc(-c2cnc(C3CCCCC3)o2)cc1 [CBK008192] | 83.1 | 
42 | N#Cc1cc(CN2CCCN(S(=O)(=O)c3ccc(C(=O)c4ccccc4)cc3)CC2)ccc1F [CBK062768] | 109 | 
43 | Cc1nc2c(c(=O)[nH]1)CN(Cc1ccc(-c3ccccc3)cc1)CC2 [CBK283952] | 99 | 
44 | c1ccc(COc2ccccc2CNCCN2CCOCC2)cc1 [CBK278212C] | 90.7 | 

Row | SMILES | viability at 28.5 h, 10 µM [%] | viability at 28.5 h, 10 µM (bulk resorufin, single well) [%]
45 | COc1ccccc1Nc1nc(N2CCOCC2)nc(N2CCOCC2)n1 [CBK287731] | 111 | 
46 | N/N=C(\CCC(=O)O)c1ccccc1 [CBK261306] | 98.3 | 
47 | O=C(Nc1cccc2cc[nH]c12)c1cccc(F)c1Cl [CBK160074] | 99.8 | 
48 | Cc1ccc(Nc2nc(Cn3nc(C(=O)O)c4ccccc4c3=O)cs2)cc1 [CBK296989] | 86.7 | 
49 | COc1ccc(CC(=O)Nc2cccc(-c3ccc4c(c3)COC3(CCNCC3)O4)c2)c(OC)c1 [CBK115706] |  | 89.6
50 | Cc1ccc(OCCSc2nnc(N)[nH]2)cc1 [CBK269334] | 98.9 | 
51 | CC(OC(=O)Cc1ccccc1[N+](=O)[O-])c1nnnn1-c1ccccc1 (stereo not shown) [CBK297920] | 97.6 | 
52 | NS(=O)(=O)c1ccc(NC(=O)CCSc2ccc(Cl)cc2)cc1 [CBK269322] | 94.4 | 
53 | COc1ccc(C2(C(=O)N3CCC(c4ccncc4)CC3)CC2)cc1 [CBK285476] | 111 | 
54 | C=CCN1C(=O)C2(CC(=O)N(CCOc3ccccc3)C2=O)c2ccccc21 (stereo not shown) [CBK075159] | 101 | 
55 | CC(=O)N1CCN(c2ccc(NC(=O)C3C(C(=O)O)C3(C)C)cc2)CC1 (stereo not shown) [CBK300545] | 88.6 | 
56 | CC(=O)c1sc(NC(=O)c2ccccc2)nc1-c1ccccc1 [CBK287315] | 87.8 | 
57 | COc1ccc(Nc2cc(-c3cc4ccccc4o3)ncn2)c(C)c1 [CBK091040] | 87.7 | 
58 | CCC(NC1CCc2nc(C)cn2C1)c1ccccc1O (stereo not shown) [CBK306012] | 85.8 | 
59 | COCCN(C)c1nc2c(c(=O)[nH]1)Cc1ccccc1OC2 [CBK306737] | 105 | 
60 | O=C(c1ccc(-c2nccnc2NCc2ccc(C(F)(F)F)cc2)cc1)N1CCOCC1 [CBK036931] | 100 | 
61 | CCOC(=O)CCC(=O)n1c2ccccc2c2ccccc21 [CBK001170] | 67.2 | 
62 | Cc1ccc([C@]2(O)CC[C@H]3CN(Cc4cccc(F)c4F)C[C@H]32)nc1 [CBK283088] | 98.1 | 
63 | O=C(O)Cc1ccc(NC(=O)C2Cc3ccccc3C(=O)O2)cc1 (stereo not shown) [CBK269406] | 85.1 | 
64 | CC(C)CC(CO)Nc1ncnc2ccc(S(C)(=O)=O)cc12 (stereo not shown) [CBK304203] | 107 | 
65 | Cc1onc(-c2ccccc2)c1CNC(=O)c1cccc(C(F)(F)F)c1 [CBK144079] | 93.6 | 
66 | Cc1cc(C(F)F)n2nc(C(=O)Nc3ccc(S(=O)(=O)NC45CC6CC(CC(C6)C4)C5)cc3)nc2n1 [CBK266251] | 96.2 | 

Row | SMILES | viability at 28.5 h, 10 µM [%] | viability at 28.5 h, 10 µM (bulk resorufin, single well) [%]
67 | CN1CCC(=NNC(=O)CN(c2cccc(Cl)c2)S(=O)(=O)c2ccccc2)CC1 [CBK262489] | 98 | 
68 | O=P(O)(CCc1ccccc1)CN1CCCCC1 [CBK262318] | 78.6 | 
69 | O=C(COc1ccc(Br)cc1)Nc1ccc(Cl)c(-c2nc3ccccc3[nH]2)c1 [CBK263075] | 92 | 
70 | COCc1ccc(C(=O)N2CCC(c3cc4ncccc4[nH]3)CC2)o1 [CBK283373] | 102 | 
71 | CC1=NN(c2ccccc2F)C(=O)C1 [CBK067773] | 96.8 | 
72 | Cc1ccc(S(=O)(=O)NCCn2cnc([N+](=O)[O-])n2)cc1 [CBK266270] | 96.3 | 
73 | CCCCNS(=O)(=O)c1ccc(Cl)c(Cl)c1 [CBK044309] | 96.5 | 
74 | O=S(=O)(Cc1ccccc1)Nc1nccnc1-c1cccs1 [CBK050766] | 91.3 | 
75 | c1cnc(N2CCN(Cc3ccc4c(c3)OCO4)CC2)c(OC2CCCCC2)n1 [CBK082833T] | 95.6 | 
76 | COc1ccc(S(=O)(=O)N(C)CC(=O)O)c2ccccc12 [CBK268459] | 105 | 
77 | O=S(=O)(NCCCn1ccnc1)c1cc(Cl)ccc1Cl [CBK261767] | 105 | 
78 | COCCN(Cc1ccccc1C)C(=O)C1CCc2nn(C)c(=O)n2C1 (stereo not shown) [CBK306934] | 80.8 | 
79 | Nc1nc2c(nc(O)n2[C@@H]2O[C@H](CO)[C@H](O)C2O)c(=O)[nH]1 (stereo partly shown) [CBK201297] | 88.5 | 
80 | Cc1ccccc1C(=O)Nc1nc2ccc(S(C)(=O)=O)cc2s1 [CBK287337] | 95.1 | 
81 | COCC1(C(=O)N2CC(=O)N(c3ccc(Cl)cc3)CC2C)CCC1 (stereo not shown) [CBK306674] | 89.2 | 
82 | Cc1cc(C)c2[nH]c(C)c(CC(=O)N(C)CCN(C)C)c2c1 [CBK282731] | 82.5 | 
83 | CN1C(=O)c2ccc(NS(C)(=O)=O)cc2C1=O [CBK038158] | 104 | 
84 | O=C(NCc1ccc(F)cc1)[C@H]1CN2CCC1C[C@@H]2Cn1cc(C2(O)CCCC2)nn1 (stereo partly shown) [CBK289093] | 109 | 
85 | O=C1CSC(c2cn(-c3ccccc3)nc2-c2ccc(Br)cc2)N1Cc1ccccc1 (stereo not shown) [CBK263146] | 97.4 | 
86 | O=C(CC1S/C(=N/N=C/c2cn(Cc3ccccc3)c3ccccc23)NC1=O)Nc1ccccc1 (stereo not shown) [CBK264529] | 84 | 
87 | CCCCc1ccc(-c2ccc(-c3cc(C(=O)O)c4cc(C)ccc4n3)o2)cc1 [CBK300528] | 94 | 
88 | COCCn1c(=O)n(Cc2ccccc2)c2cccnc21 [CBK283964] | 91 | 
